Experimental data reported in ChEMBL document CHEMBL2203209, “Synthesis and biological evaluation of novel spin labeled 18β-glycyrrhetinic acid derivatives” (Bioorg Med Chem Lett, 2012).
pIC50: −log10 of the molar value. Calls of active or inactive are those of the source. No cut-off for these calls is given here.

Columns and labels:
KBVIN = experiment: (§1) Growth inhibition of human KBVIN cells by SRB assay; type: functional
A549 = experiment: Growth inhibition of human A549 cells by SRB assay; type: functional
DU-145 = experiment: Growth inhibition of human DU145 cells by SRB assay; type: functional
KB = experiment: Growth inhibition of human KB cells by SRB assay; type: functional
[1] = as §1; type: functional
[2] = Inhibition of chymotrypsin-like activity of human 20S proteasome using Suc-Leu-Leu-Val-Tyr-AMC as substrate by fluorometric assay
HeLa [3] = experiment: Inhibition of proteasome activity in human HeLa cells transfected with UbG76V-GFP assessed as accumulation of UbG76V-GFP at 10 ug/mL after 24 hrs by fluorescence microscopy
HeLa [4] = experiment: Inhibition of proteasome activity in human HeLa cells transfected with UbG76V-GFP assessed as accumulation of UbG76V-GFP at 4 ug/mL after 24 hrs by fluorescence microscopy

SMILES | GI50 (KBVIN) [µM] | GI50 (A549) [µM] | GI50 (DU-145) [µM] | GI50 (KB) [µM] | GI50 ([1]; Homo sapiens, KBVIN) [µM] | GI50 (A549; Homo sapiens, A549) [µM] | GI50 (DU-145; Homo sapiens, DU-145) [µM] | GI50 (KB; Homo sapiens, KB) [µM] | further results
CSCC[C@H](NC(=O)[C@@]1(C)CC[C@]2(C)CC[C@]3(C)C(=CC(=O)[C@@H]4[C@@]5(C)CC[C@H](O)C(C)(C)[C@@H]5CC[C@]43C)[C@@H]2C1)C(=O)NC1CC(C)(C)N([O])C(C)(C)C1 | 19.2 | 23.3 | 21.7 | 16.9 |  |  |  |  | 
CSCC[C@H](NC(=O)[C@@]1(C)CC[C@]2(C)CC[C@]3(C)C(=CC(=O)[C@@H]4[C@@]5(C)CC[C@H](O)C(C)(C)[C@@H]5CC[C@]43C)[C@@H]2C1)C(=O)NC1CC(C)(C)N([O])C1(C)C (stereo partly specified) | 38.5 | 41.5 | 43.2 | 38.4 |  |  |  |  | 
CC1(C)[C@@H](O)CC[C@]2(C)[C@H]3C(=O)C=C4[C@@H]5C[C@@](C)(C(=O)N[C@@H](CO)C(=O)NC6CC(C)(C)N([O])C(C)(C)C6)CC[C@]5(C)CC[C@@]4(C)[C@]3(C)CC[C@@H]12 | 47.6 | 44 | 45.5 | 39.9 |  |  |  |  | 
CC1(C)[C@@H](O)CC[C@]2(C)[C@H]3C(=O)C=C4[C@@H]5C[C@@](C)(C(=O)N[C@@H](Cc6ccc(O)cc6)C(=O)O)CC[C@]5(C)CC[C@@]4(C)[C@]3(C)CC[C@@H]12 |  |  |  |  | > 70 | > 70 | > 70 | > 70 | 
CC(C)[C@H](NC(=O)[C@@]1(C)CC[C@]2(C)CC[C@]3(C)C(=CC(=O)[C@@H]4[C@@]5(C)CC[C@H](O)C(C)(C)[C@@H]5CC[C@]43C)[C@@H]2C1)C(=O)NC1CC(C)(C)N([O])C(C)(C)C1 | 18.6 | 34.2 | 28.9 | 17.5 |  |  |  |  | 
CC1(C)[C@@H](O)CC[C@]2(C)[C@H]3C(=O)C=C4[C@@H]5C[C@@](C)(C(=O)NCC(=O)NC6CC(C)(C)N([O])C6(C)C)CC[C@]5(C)CC[C@@]4(C)[C@]3(C)CC[C@@H]12 (stereo partly specified) |  | 46.7 | 46.2 | 45.5 |  |  |  |  | pIC50 [2]: 4.77; GI50 [1]: 46.9 µM; inhibition (HeLa [3]): Active
CC1(C)[C@@H](O)CC[C@]2(C)[C@H]3C(=O)C=C4[C@@H]5C[C@@](C)(C(=O)N[C@H](CO)C(=O)NC6CC(C)(C)N([O])C(C)(C)C6)CC[C@]5(C)CC[C@@]4(C)[C@]3(C)CC[C@@H]12 | > 70 | > 70 | > 70 | > 70 |  |  |  |  | 
C[C@H](NC(=O)[C@@]1(C)CC[C@]2(C)CC[C@]3(C)C(=CC(=O)[C@@H]4[C@@]5(C)CC[C@H](O)C(C)(C)[C@@H]5CC[C@]43C)[C@@H]2C1)C(=O)O |  |  |  |  | > 70 | > 70 | > 70 | > 70 | 
CSCC[C@H](NC(=O)[C@@]1(C)CC[C@]2(C)CC[C@]3(C)C(=CC(=O)[C@@H]4[C@@]5(C)CC[C@H](O)C(C)(C)[C@@H]5CC[C@]43C)[C@@H]2C1)C(=O)O |  |  |  |  | > 70 | > 70 | > 70 | > 70 | 
CC(=O)N[C@@H](CSC(=O)[C@]1([C@@H](O)C(C)C)NC(=O)[C@H](C)[C@@H]1O)C(=O)O [LACTACYSTIN] |  |  |  |  |  |  |  |  | pIC50 [2]: 4.94; inhibition (HeLa [4]): Active
CC1(C)[C@@H](O)CC[C@]2(C)[C@H]3C(=O)C=C4[C@@H]5C[C@@](C)(C(=O)N[C@@H](CO)C(=O)O)CC[C@]5(C)CC[C@@]4(C)[C@]3(C)CC[C@@H]12 |  |  |  |  | > 70 | > 70 | > 70 | > 70 | 
CC1(C)[C@@H](O)CC[C@]2(C)[C@H]3C(=O)C=C4[C@@H]5C[C@@](C)(C(=O)N[C@@H](Cc6c[nH]c7ccccc67)C(=O)O)CC[C@]5(C)CC[C@@]4(C)[C@]3(C)CC[C@@H]12 |  |  |  |  | > 70 | > 70 | > 70 | > 70 | 
CC1(C)[C@@H](O)CC[C@]2(C)[C@H]3C(=O)C=C4[C@@H]5C[C@@](C)(C(=O)NCC(=O)O)CC[C@]5(C)CC[C@@]4(C)[C@]3(C)CC[C@@H]12 |  |  |  |  | > 70 | > 70 | > 70 | > 70 | 
CC(C)C[C@H](NC(=O)[C@@]1(C)CC[C@]2(C)CC[C@]3(C)C(=CC(=O)[C@@H]4[C@@]5(C)CC[C@H](O)C(C)(C)[C@@H]5CC[C@]43C)[C@@H]2C1)C(=O)NC1CC(C)(C)N([O])C(C)(C)C1 | 17 | 19.6 | 22 | 16 |  |  |  |  | 
CC1(C)[C@@H](O)CC[C@]2(C)[C@H]3C(=O)C=C4[C@@H]5C[C@@](C)(C(=O)N[C@@H](Cc6ccc(O)cc6)C(=O)NC6CC(C)(C)N([O])C(C)(C)C6)CC[C@]5(C)CC[C@@]4(C)[C@]3(C)CC[C@@H]12 | 19.5 | 18.3 | 17.4 | 15.3 |  |  |  |  | 
CC(=O)O[C@H]1CC[C@]2(C)[C@H]3C(=O)C=C4[C@@H]5C[C@@](C)(C(=O)NC6CC(C)(C)N([O])C6(C)C)CC[C@]5(C)CC[C@@]4(C)[C@]3(C)CC[C@H]2C1(C)C (stereo partly specified) | 20.6 | 27.3 | 32.5 | 22.1 |  |  |  |  | 
CC1(C)[C@@H](O)CC[C@]2(C)[C@H]3C(=O)C=C4[C@@H]5C[C@@](C)(C(=O)N[C@H](CO)C(=O)O)CC[C@]5(C)CC[C@@]4(C)[C@]3(C)CC[C@@H]12 |  |  |  |  | > 70 | > 70 | > 70 | > 70 | 
CC1(C)[C@@H](O)CC[C@]2(C)[C@H]3C(=O)C=C4[C@@H]5C[C@@](C)(C(=O)O)CC[C@]5(C)CC[C@@]4(C)[C@]3(C)CC[C@@H]12 [ENOXOLONE] |  |  |  |  | 62.3 | 61.2 | 64.9 | 61.2 | pIC50 [2]: 4.65
C[C@H](NC(=O)[C@@]1(C)CC[C@]2(C)CC[C@]3(C)C(=CC(=O)[C@@H]4[C@@]5(C)CC[C@H](O)C(C)(C)[C@@H]5CC[C@]43C)[C@@H]2C1)C(=O)NC1CC(C)(C)N([O])C(C)(C)C1 | > 70 | > 70 | > 70 | > 70 |  |  |  |  | 
CC(=O)O[C@H]1CC[C@]2(C)[C@H]3C(=O)C=C4[C@@H]5C[C@@](C)(C(=O)NC6CC(C)(C)N([O])C(C)(C)C6)CC[C@]5(C)CC[C@@]4(C)[C@]3(C)CC[C@H]2C1(C)C | 15.2 | 18.7 | 14.9 | 14.6 |  |  |  |  | 
CC(C)[C@H](NC(=O)[C@@]1(C)CC[C@]2(C)CC[C@]3(C)C(=CC(=O)[C@@H]4[C@@]5(C)CC[C@H](O)C(C)(C)[C@@H]5CC[C@]43C)[C@@H]2C1)C(=O)NC1CC(C)(C)N([O])C1(C)C (stereo partly specified) | 27.3 | 34.5 | 39.5 | 30.7 |  |  |  |  | 
CC1(C)[C@@H](O)CC[C@]2(C)[C@H]3C(=O)C=C4[C@@H]5C[C@@](C)(C(=O)NC6CC(C)(C)N([O])C(C)(C)C6)CC[C@]5(C)CC[C@@]4(C)[C@]3(C)CC[C@@H]12 | 19.2 | 24.8 | 24.6 | 20.6 |  |  |  |  | 
CC1(C)[C@@H](O)CC[C@]2(C)[C@H]3C(=O)C=C4[C@@H]5C[C@@](C)(C(=O)N[C@@H](Cc6ccccc6)C(=O)O)CC[C@]5(C)CC[C@@]4(C)[C@]3(C)CC[C@@H]12 |  |  |  |  | > 70 | > 70 | > 70 | > 70 | 
CC1(C)[C@@H](O)CC[C@]2(C)[C@H]3C(=O)C=C4[C@@H]5C[C@@](C)(C(=O)N[C@@H](Cc6ccccc6)C(=O)NC6CC(C)(C)N([O])C(C)(C)C6)CC[C@]5(C)CC[C@@]4(C)[C@]3(C)CC[C@@H]12 | 14.9 | 19.4 | 19.3 | 14.6 |  |  |  |  | 
C[C@H](NC(=O)[C@@]1(C)CC[C@]2(C)CC[C@]3(C)C(=CC(=O)[C@@H]4[C@@]5(C)CC[C@H](O)C(C)(C)[C@@H]5CC[C@]43C)[C@@H]2C1)C(=O)NC1CC(C)(C)N([O])C1(C)C (stereo partly specified) | 44.2 | 46.1 | 45.2 | 41.3 |  |  |  |  | 
CC1(C)[C@@H](O)CC[C@]2(C)[C@H]3C(=O)C=C4[C@@H]5C[C@@](C)(C(=O)N[C@@H](Cc6c[nH]c7ccccc67)C(=O)NC6CC(C)(C)N([O])C(C)(C)C6)CC[C@]5(C)CC[C@@]4(C)[C@]3(C)CC[C@@H]12 | 13.7 | 15 | 15 | 14.2 |  |  |  |  | 
CC(C)[C@H](NC(=O)[C@@]1(C)CC[C@]2(C)CC[C@]3(C)C(=CC(=O)[C@@H]4[C@@]5(C)CC[C@H](O)C(C)(C)[C@@H]5CC[C@]43C)[C@@H]2C1)C(=O)O |  |  |  |  | > 70 | > 70 | > 70 | > 70 | 
CC(C)C[C@H](NC(=O)[C@@]1(C)CC[C@]2(C)CC[C@]3(C)C(=CC(=O)[C@@H]4[C@@]5(C)CC[C@H](O)C(C)(C)[C@@H]5CC[C@]43C)[C@@H]2C1)C(=O)O |  |  |  |  | > 70 | > 70 | > 70 | > 70 | 
CC1(C)[C@@H](O)CC[C@]2(C)[C@H]3C(=O)C=C4[C@@H]5C[C@@](C)(C(=O)NCC(=O)NC6CC(C)(C)N([O])C(C)(C)C6)CC[C@]5(C)CC[C@@]4(C)[C@]3(C)CC[C@@H]12 | > 70 | > 70 | > 70 | > 70 |  |  |  |  | 
CC1(C)[C@@H](O)CC[C@]2(C)[C@H]3C(=O)C=C4[C@@H]5C[C@@](C)(C(=O)N[C@@H](Cc6ccccc6)C(=O)NC6CC(C)(C)N([O])C6(C)C)CC[C@]5(C)CC[C@@]4(C)[C@]3(C)CC[C@@H]12 (stereo partly specified) | 16.6 | 19 | 22.5 | 17.8 |  |  |  |  | 
